Experimental data as given in patent publication US11964972B2, “Salt form” (CRT Pioneer Fund LP, priority 2018, dated 2024).
Read-outs that look alike come from different tables or passages of the source.

Columns and labels:
MPS1 kinase = molecular target: T1, MPS1 kinase (Homo sapiens, UniProt P33981); conditions: background statement; WO 2014/037750; cited from earlier work
T1 sequence (P33981 1-857): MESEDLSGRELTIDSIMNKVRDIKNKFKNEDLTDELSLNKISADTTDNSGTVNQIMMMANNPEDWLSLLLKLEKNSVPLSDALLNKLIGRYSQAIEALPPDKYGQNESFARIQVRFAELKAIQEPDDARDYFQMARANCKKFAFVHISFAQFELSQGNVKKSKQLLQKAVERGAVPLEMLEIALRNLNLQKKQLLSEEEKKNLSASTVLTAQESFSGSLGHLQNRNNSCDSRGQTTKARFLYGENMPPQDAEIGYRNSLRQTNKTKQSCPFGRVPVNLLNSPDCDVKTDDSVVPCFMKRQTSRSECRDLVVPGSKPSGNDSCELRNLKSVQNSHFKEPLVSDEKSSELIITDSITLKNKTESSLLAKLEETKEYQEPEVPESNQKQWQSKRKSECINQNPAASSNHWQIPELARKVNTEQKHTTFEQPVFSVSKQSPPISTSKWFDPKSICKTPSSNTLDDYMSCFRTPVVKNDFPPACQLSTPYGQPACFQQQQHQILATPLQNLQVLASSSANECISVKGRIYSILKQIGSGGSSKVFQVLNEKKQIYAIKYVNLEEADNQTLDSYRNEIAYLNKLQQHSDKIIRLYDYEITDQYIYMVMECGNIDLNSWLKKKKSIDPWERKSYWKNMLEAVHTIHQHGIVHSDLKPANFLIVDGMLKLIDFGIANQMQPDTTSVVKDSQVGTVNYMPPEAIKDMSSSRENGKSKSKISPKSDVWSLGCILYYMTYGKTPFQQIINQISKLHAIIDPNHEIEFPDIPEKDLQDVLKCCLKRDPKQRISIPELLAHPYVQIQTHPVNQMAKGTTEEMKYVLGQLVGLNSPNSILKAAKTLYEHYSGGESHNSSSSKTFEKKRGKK

[1] = Recrystallisation studies (XRPD form classification); format: physicochemical
Method: The ditosylate salt of the compound of formula I (about 100 mg) was suspended in a designated volume of water miscible solvent at a given temperature, followed by the addition of one volume aliquots of pre-heated water until dissolution was achieved. The agitated mixtures were then cooled to 20° C. and agitated for about 16 hours. […] Solvent, solvent ratios and form classification of the isolated solids are detailed in Table 2.

[2] = for Solubility: Form A, 37° C., minimum of 23 hours; for pH: pH of the aqueous mixture
Method: Crystalline ditosylate salt of the compound of formula I (about 40 mg, Form A) was suspended by gentle shaking in various aqueous buffers, biologically relevant media and formulation vehicles, 2×0.5 ml, at ambient temperature, ca 20° C. The mixtures were then heated to 37° C. with agitation for a minimum of 23 hours. The pH of the aqueous mixtures were also measured.
Table 1 presents the pH measurements and the solubility in various dissolution media.

[3] = 40° C. and 75% RH, 3 weeks
Method: The ditosylate salt of the compound of formula I was stored at 40° C. and 75% RH in loose screw top vials for 3 weeks.

[4] = Method: The ability of samples studied to absorb moisture (or not) over a set of well-determined humidity ranges was assessed. Sorption isotherms were obtained using a Hiden Isochema moisture sorption analyser (model IGAsorp), controlled by IGAsorp Systems Software V6.50.48. The sample was maintained at a constant temperature (25° C.) by the instrument controls. The humidity was controlled by mixing streams of dry and wet nitrogen, with a total flow of 250 ml·min^−1. The instrument was verified for relative humidity content by measuring three calibrated Rotronic salt solutions (10-50-88%). The weight change of the sample was monitored as a function of humidity by a microbalance (accuracy +/−0.005 mg). A defined amount of sample (typically 10-15 mg powder) was placed in a tared mesh stainless steel basket under ambient conditions. A full experimental cycle typically consisted of three scans (desorption, sorption, and desorption) at a constant temperature (25° C.) and 10% RH intervals over a 0-90% range (60 minutes for each humidity level). Solids are then held post cycle at 0% RH for 2-3 hours and tested by XRPD and the remainder held at 90% RH for 2-3 hours and re-tested by XRPD.
[5] = for XRPD classification: 20/40° C. cycling
Method: The equilibration of a solid in various solvents with temperature modulation is an accepted approach to investigate the form stability of a solid and the generation of alternate modifications, polymorphs/solvates of the material.
The ditosylate of the compound of formula I, 35 mg, was subjected to equilibration in various solvents with agitation at 20° C. for 90 hours, 40° C. for 3 hours, cooled to 20° C. over 3 hours, then heated to 40° C. for 16 hours and cooled to 20° C. The solvents were initially charged to the salts in aliquots, 0.25 ml, until dissolution was observed or a volume of 2 ml achieved. The solids were isolated by filtration and dried in vacuo at 50° C. for about 16 hours and then analysed by XRPD.

[6] = from 0 to 90% RH, 25° C., Form A

**Q.** Which “MPS1 kinase inhibitory activity” value (MPS1 kinase) does the source give for `CCOc1cc(-c2nncn2C)ccc1Nc1ncc2cc(C)nc(NCC(C)(C)C)c2n1` [compound I, N2-(2-ethoxy-4-(4-methyl-4H-1,2,4-triazol-3-yl)phenyl)-6-methyl-N8-neopentylpyrido[3,4-d]pyrimidine-2,8-diamine] here?
**A.** potent MPS1 kinase inhibitory activity

**Q.** For `CCOc1cc(-c2nncn2C)ccc1Nc1ncc2cc(C)nc(NCC(C)(C)C)c2n1.Cc1ccc(S(=O)(=O)O)cc1.Cc1ccc(S(=O)(=O)O)cc1` [ditosylate Form C, ditosylate salt of N2-(2-ethoxy-4-(4-methyl-4H-1,2,4-triazol-3-yl)phenyl)-6-methyl-N8-neopentylpyrido[3,4-d]pyrimidine-2,8-diamine Form C], which “Form stability on thermal manipulation (XRPD, DSC)” value ([1]; solid isolated from exclusively ethanol, FIG. 5, FIG. 6) is on record?
**A.** metastable form that could be thermally converted to ditosylate Form A

**Q.** For `CCOc1cc(-c2nncn2C)ccc1Nc1ncc2cc(C)nc(NCC(C)(C)C)c2n1.Cc1ccc(S(=O)(=O)O)cc1.Cc1ccc(S(=O)(=O)O)cc1` [ditosylate salt of N2-(2-ethoxy-4-(4-methyl-4H-1,2,4-triazol-3-yl)phenyl)-6-methyl-N8-neopentylpyrido[3,4-d]pyrimidine-2,8-diamine], which Solubility ([2]; FaSSIF) is on record?
**A.** 14210 µg/mL

**Q.** And the Solubility ([2]; FeSSIF)?
**A.** 1690 µg/mL

**Q.** What about the Solubility ([2]; NaCl,0.9%/DMSO/Tween 20) of the same compound?
**A.** 12690 µg/mL

**Q.** What about the Solubility ([2]; PEG300) of the same compound?
**A.** 2900 µg/mL

**Q.** And the Solubility ([2]; Phosphate buffer)?
**A.** 2240 µg/mL

**Q.** And the Solubility ([2]; SFaGF)?
**A.** 5720 µg/mL

**Q.** And the Solubility ([2]; Sodium chloride 0.9% w/v)?
**A.** 9580 µg/mL

**Q.** What about the Solubility ([2]; Water, deionised) of the same compound?
**A.** 5850 µg/mL

**Q.** And the pH ([2]; Acetate buffer)?
**A.** 4.33

**Q.** What about the pH ([2]; FaSSIF) of the same compound?
**A.** 2.41

**Q.** What about the pH ([2]; FeSSIF) of the same compound?
**A.** 3.05

**Q.** And the pH ([2]; NaCl,0.9%/DMSO/Tween 20)?
**A.** 1.97

**Q.** What about the pH ([2]; Phosphate buffer) of the same compound?
**A.** 2.56

**Q.** What about the pH ([2]; SFaGF) of the same compound?
**A.** 1.40

**Q.** And the pH ([2]; Sodium chloride 0.9% w/v)?
**A.** 2.01

**Q.** What about the pH ([2]; Water, deionised) of the same compound?
**A.** 2.13

**Q.** And the “Chemical degradation after storage” value [3]?
**A.** no evidence of chemical degradation

**Q.** What about the Hydration following storage [3] of the same compound?
**A.** no evidence

**Q.** And the “Form modification after storage (XRPD)” value ([3]; FIG. 4)?
**A.** No evidence of form modification

**Q.** And the “Change in appearance after storage” value ([3]; loose screw top vials)?
**A.** No change in appearance

**Q.** And the “Form change post DVS and at the extremes of humidity (XRPD)” value ([4]; 0% RH and 90% RH, FIG. 8)?
**A.** no evidence of form change

**Q.** And the DVS profile ([4]; 0-90% RH, 25° C., Form A, FIG. 7)?
**A.** reversible water uptake over the humidity range and no hysteresis

**Q.** And the Water uptake/loss [4, 6]?
**A.** 2.13%

**Q.** What about the “Water uptake/loss as equivalents of water” value [4, 6] of the same compound?
**A.** about 1.0 equivalents of water

**Q.** And the “XRPD Observations” value ([1]; 2-butanone 8 volumes, water 1 volume, 80 ° C.)?
**A.** Form A

**Q.** And the “XRPD Observations” value ([1]; 2-propanol 8 volumes, water 1 volume, 80 ° C.)?
**A.** Form A

**Q.** What about the “XRPD Observations” value ([1]; Acetone 10 volumes, water 2 volumes, 60 ° C.) of the same compound?
**A.** Form A

**Q.** And the “XRPD Observations” value ([1]; Acetonitrile 2 volumes, water 1 volume, 60 ° C.)?
**A.** Form A

**Q.** What about the “XRPD Observations” value ([1]; Ethanol 2 volumes, water 1 volume, 60 ° C.) of the same compound?
**A.** Form A

**Q.** And the “XRPD Observations” value ([1]; Ethanol 15 volumes, no water, 80 ° C.)?
**A.** Form C

**Q.** And the XRPD classification ([5]; equilibration in 1,4-Dioxane)?
**A.** Form A

**Q.** And the XRPD classification ([5]; equilibration in 1-Butanol)?
**A.** Form A

**Q.** What about the XRPD classification ([5]; equilibration in 2-Chlorobutane) of the same compound?
**A.** Form A

**Q.** What about the XRPD classification ([5]; equilibration in 2-Methyltetrahydrofuran) of the same compound?
**A.** Form A

**Q.** What about the XRPD classification ([5]; equilibration in 2-Propanol) of the same compound?
**A.** Form A

**Q.** And the XRPD classification ([5]; equilibration in 3-Methyl-1-butanol)?
**A.** Form A

**Q.** What about the XRPD classification ([5]; equilibration in Acetonitrile) of the same compound?
**A.** Form A

**Q.** And the XRPD classification ([5]; equilibration in Chlorobenzene)?
**A.** Form A

**Q.** And the XRPD classification ([5]; equilibration in Ethyl acetate)?
**A.** Form A

**Q.** What about the XRPD classification ([5]; equilibration in Heptane) of the same compound?
**A.** Form A

**Q.** What about the XRPD classification ([5]; equilibration in Isopropyl acetate) of the same compound?
**A.** Form A

**Q.** And the XRPD classification ([5]; equilibration in Methanol)?
**A.** Form A

**Q.** And the XRPD classification ([5]; equilibration in Methyl isobutyl ketone)?
**A.** Form A

**Q.** And the XRPD classification ([5]; equilibration in Methylcyclohexane)?
**A.** Form A

**Q.** What about the XRPD classification ([5]; equilibration in Nitromethane) of the same compound?
**A.** Form A

**Q.** What about the XRPD classification ([5]; equilibration in TBME) of the same compound?
**A.** Form A

**Q.** And the XRPD classification ([5]; equilibration in Toluene)?
**A.** Form A

**Q.** What about the XRPD classification ([5]; equilibration in Trifluorotoluene) of the same compound?
**A.** Form A

**Q.** What about the XRPD classification ([5]; equilibration in Water) of the same compound?
**A.** Form A

**Q.** And the XRPD classification ([5]; equilibration in n-Butyl acetate)?
**A.** Form A

**Q.** And the “Propensity to exhibit version or polymorphic variance” value ([5]; summary of the polymorphism studies)?
**A.** remarkable lack of propensity to exhibit version or polymorphic variance
